Source: patent US20220144847A1, “HETEROCYCLIC COMPOUND, PHARMACEUTICAL COMPOSITION COMPRISING SAME, PREPARATION METHOD THEREFOR, AND USE THEREOF” (Sichuan Kelun-Biotech Biopharmaceutical Co., Ltd., priority 2019, published 2022)

What was measured:
[1] = molecular target: RET-V804M (Homo sapiens, UniProt P07949, V804M); assay: RET inhibition experiment (HTRF KinEASE-TK kit), mutant RET-V804M; assay type: biochemical; conditions: read-out: The IC50 (nM) for inhibiting V804M
How it was run: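 Enzyme was pre-incubated with compound at room temperature for 30 min, then substrate and ATP were added for a 40 min reaction. HTRF signal was read after 45 min with TK antibody-cryptate and streptavidin-XL665. IC50 came from a four-parameter fit of percent inhibition against DMSO and no-enzyme controls.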

[2] = molecular target: VEGFR2 (Homo sapiens, UniProt P35968); assay: VEGFR2 inhibition experiment (HTRF KinEASE-TK kit); assay type: biochemical; conditions: read-out: IC50 for inhibiting VEGFR2
VEGFR2, sequence (P35968 20-1356, species assumed): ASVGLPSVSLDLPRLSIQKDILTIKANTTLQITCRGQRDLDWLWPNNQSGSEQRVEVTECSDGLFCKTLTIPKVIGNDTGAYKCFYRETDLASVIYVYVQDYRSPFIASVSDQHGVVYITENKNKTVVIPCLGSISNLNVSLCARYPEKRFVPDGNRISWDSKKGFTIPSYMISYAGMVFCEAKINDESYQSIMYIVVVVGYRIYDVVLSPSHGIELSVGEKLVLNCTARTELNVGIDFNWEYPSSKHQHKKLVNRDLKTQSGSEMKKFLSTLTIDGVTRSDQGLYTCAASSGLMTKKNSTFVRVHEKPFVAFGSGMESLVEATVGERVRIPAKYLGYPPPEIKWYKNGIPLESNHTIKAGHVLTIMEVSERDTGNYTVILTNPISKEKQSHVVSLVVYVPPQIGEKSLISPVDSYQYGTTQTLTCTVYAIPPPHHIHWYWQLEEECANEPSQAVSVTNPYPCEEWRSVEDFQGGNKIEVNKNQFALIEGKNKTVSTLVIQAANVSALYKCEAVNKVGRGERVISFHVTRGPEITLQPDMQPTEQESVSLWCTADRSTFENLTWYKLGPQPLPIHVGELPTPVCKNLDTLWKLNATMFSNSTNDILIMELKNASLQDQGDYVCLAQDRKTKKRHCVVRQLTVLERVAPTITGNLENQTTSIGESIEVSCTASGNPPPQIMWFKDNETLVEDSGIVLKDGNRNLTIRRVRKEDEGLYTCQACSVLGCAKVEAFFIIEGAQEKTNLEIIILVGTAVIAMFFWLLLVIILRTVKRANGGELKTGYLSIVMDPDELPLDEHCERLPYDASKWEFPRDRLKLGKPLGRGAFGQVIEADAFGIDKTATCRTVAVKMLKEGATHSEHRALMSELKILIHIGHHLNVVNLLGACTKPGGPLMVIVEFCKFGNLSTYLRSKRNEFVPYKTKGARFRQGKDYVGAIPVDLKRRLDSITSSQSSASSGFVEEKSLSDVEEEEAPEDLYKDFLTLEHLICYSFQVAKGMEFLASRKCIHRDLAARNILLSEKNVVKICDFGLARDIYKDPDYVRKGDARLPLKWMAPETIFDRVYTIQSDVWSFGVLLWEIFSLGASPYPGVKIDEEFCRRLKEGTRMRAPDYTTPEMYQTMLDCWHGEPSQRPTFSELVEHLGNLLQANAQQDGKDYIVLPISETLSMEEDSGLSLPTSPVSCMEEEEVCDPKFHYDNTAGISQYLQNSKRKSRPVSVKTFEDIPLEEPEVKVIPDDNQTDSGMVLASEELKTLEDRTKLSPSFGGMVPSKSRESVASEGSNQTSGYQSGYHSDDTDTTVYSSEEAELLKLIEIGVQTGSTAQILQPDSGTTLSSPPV
How it was run: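 HTRF KinEASE-TK format: enzyme and compound were preincubated 30 min at room temperature, then substrate and ATP added for 40 min, followed by cryptate antibody/streptavidin-XL665 detection for 45 min. Inhibition was normalised to DMSO and no-enzyme controls; IC50 from a four-parameter fit.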

RET-V804M, sequence (P07949 29-1114 V804M): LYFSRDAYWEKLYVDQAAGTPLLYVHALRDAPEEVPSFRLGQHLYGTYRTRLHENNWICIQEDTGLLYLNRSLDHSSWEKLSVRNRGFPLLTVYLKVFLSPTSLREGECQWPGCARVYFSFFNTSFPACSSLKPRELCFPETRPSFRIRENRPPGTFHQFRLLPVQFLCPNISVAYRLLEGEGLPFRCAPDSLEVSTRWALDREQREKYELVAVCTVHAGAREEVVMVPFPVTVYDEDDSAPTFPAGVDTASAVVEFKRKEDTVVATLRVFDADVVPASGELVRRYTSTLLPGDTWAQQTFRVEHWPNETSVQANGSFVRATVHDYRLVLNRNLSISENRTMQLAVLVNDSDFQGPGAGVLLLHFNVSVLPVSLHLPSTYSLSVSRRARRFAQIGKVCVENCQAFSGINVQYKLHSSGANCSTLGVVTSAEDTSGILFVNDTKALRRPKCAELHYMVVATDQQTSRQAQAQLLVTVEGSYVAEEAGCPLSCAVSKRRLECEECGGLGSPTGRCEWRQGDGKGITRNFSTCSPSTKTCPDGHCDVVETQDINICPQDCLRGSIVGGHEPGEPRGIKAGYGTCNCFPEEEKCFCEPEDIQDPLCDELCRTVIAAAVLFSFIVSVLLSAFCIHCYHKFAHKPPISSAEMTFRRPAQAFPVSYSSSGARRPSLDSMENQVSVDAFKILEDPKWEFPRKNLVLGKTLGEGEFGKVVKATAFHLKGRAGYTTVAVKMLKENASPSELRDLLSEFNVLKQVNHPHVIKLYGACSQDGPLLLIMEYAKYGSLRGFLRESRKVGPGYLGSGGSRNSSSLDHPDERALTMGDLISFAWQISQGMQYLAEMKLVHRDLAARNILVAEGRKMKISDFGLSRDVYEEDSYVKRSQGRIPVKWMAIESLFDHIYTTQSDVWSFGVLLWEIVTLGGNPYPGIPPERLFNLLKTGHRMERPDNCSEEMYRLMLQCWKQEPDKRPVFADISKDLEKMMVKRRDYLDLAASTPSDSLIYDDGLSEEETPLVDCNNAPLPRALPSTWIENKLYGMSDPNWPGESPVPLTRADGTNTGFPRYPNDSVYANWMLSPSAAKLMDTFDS

`Cc1cc(Nc2cc(C)[nH]n2)nc(-c2ccc(N3CC4CC(C3)N4Cc3ccc(-n4cc(F)cn4)nc3)nc2)n1` [Compound 17, 2-(6-(6-((6-(4-fluoro-1H-pyrazol-1-yl)pyridin-3-yl)methyl)-3,6-diazabicyclo[3.1.1]heptan-3-yl)pyridin-3-yl)-6-methyl-N-(5-methyl-1H-pyrazol-3-yl)pyrimidin-4-amine] was tested. Which IC50 [1] did it give?
Its IC50 is 1.03 ± 0.47 nM.

And the IC50 [2]?
The IC50 was 63 ± 11.8 nM.
